A value given as a limit tells only on which side of the number the result lay.

Sequence of hSTING(R232) (Q86WV6 whole entry H232R, the tested form may be a part): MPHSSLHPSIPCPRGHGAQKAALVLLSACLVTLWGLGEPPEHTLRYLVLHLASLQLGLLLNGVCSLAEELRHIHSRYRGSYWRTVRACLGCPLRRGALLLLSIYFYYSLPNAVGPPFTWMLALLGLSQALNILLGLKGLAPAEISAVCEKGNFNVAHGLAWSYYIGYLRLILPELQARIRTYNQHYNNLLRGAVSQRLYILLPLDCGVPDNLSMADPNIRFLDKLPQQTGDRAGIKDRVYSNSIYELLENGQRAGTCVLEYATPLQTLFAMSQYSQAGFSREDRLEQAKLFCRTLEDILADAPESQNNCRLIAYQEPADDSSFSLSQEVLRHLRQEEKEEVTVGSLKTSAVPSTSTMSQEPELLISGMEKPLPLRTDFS

This experiment concerns the target hSTING(R232) (Homo sapiens, UniProt Q86WV6, H232R). The experiment is described as follows: Luciferase reporter assay in HEK293T-hSTING-Luciferase cells, R232 (wild type) human STING. Format: cell-based. Conditions: 20 hr stimulation, read-out: R232 human activity (EC50 range). The procedure, abridged:
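After 20 hr compound stimulation of 5×10^5 cells, secreted luciferase in the supernatant was measured by luminescence; values are fold-induction over baseline and EC50. The line is a clonal HEK293T stably carrying a STING plasmid (pUNO-1) and a luciferase reporter under five tandem ISREs fused to an ISG54 promoter.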
Turning to `COc1cccc2cc(CNC(=O)c3ccc4c(c3)N(Cc3c(F)cccc3Cl)C(=O)N(C)C4)oc12` [Example 47, 1-(2-chloro-6-fluorobenzyl)-N-((7-methoxybenzofuran-2-yl)methyl)-3-methyl-2-oxo-1,2,3,4-tetrahydroquinazoline-7-carboxamide], the EC50 (in general, the midpoint of the concentration-response curve) is > 10 µM.
The figure for `CN1Cc2ccc(C(=O)NCc3cccc(-c4ccn(C)n4)c3)cc2N(Cc2c(F)cccc2Cl)C1=O` [Example 28, 1-(2-chloro-6-fluorobenzyl)-3-methyl-N-(3-(1-methyl-1H-pyrazol-3-yl)benzyl)-2-oxo-1,2,3,4-tetrahydroquinazoline-7-carboxamide] is > 10 µM; for `Cc1cccc(F)c1CN1C(=O)N(C)C(C)c2ccc(C(=O)NCc3c(F)cc(F)cc3F)cc21` (stereo not drawn) [Example 161, 1-(2-fluoro-6-methylbenzyl)-3,4-dimethyl-2-oxo-N-(2,4,6-trifluorobenzyl)-1,2,3,4-tetrahydroquinazoline-7-carboxamide] it is 1 to 10 µM.
The figure for `CC1c2ccc(C(=O)NCc3c(F)cc(F)cc3F)cc2N(Cc2c(F)cccc2OCCO)C(=O)N1C` (stereo not drawn) [Example 236, 1-(2-fluoro-6-(2-hydroxyethoxy)benzyl)-3,4-dimethyl-2-oxo-N-(2,4,6-trifluorobenzyl)-1,2,3,4-tetrahydroquinazoline-7-carboxamide] is < 1 µM.
The figure for `CC1c2ccc(C(=O)NCc3c(F)cc(F)cc3F)cc2N(Cc2c(F)cccc2F)C(=O)N1C` (stereo not drawn) [Example 205, 1-(2,6-difluorobenzyl)-3,4-dimethyl-2-oxo-N-(2,4,6-trifluorobenzyl)-1,2,3,4-tetrahydroquinazoline-7-carboxamide] is < 1 µM.
Consider `CC1c2ccc(C(=O)NCc3c(F)cc(F)cc3F)cc2N(Cc2ccc(F)cc2Cl)C(=O)N1C` (stereo not drawn) [Example 221, 1-(2-chloro-4-fluorobenzyl)-3,4-dimethyl-2-oxo-N-(2,4,6-trifluorobenzyl)-1,2,3,4-tetrahydroquinazoline-7-carboxamide], for which the 50% effective concentration (EC50) was < 1 µM.
Next, `COc1cccc(F)c1CN1C(=O)N(C)Cc2ccc(C(=O)NCc3c(F)cc(F)cc3F)cc21` [Example 10, 1-(2-fluoro-6-methoxybenzyl)-3-methyl-2-oxo-N-(2,4,6-trifluorobenzyl)-1,2,3,4-tetrahydroquinazoline-7-carboxamide]: < 1 µM.
The figure for `CN1Cc2ccc(C(=O)NCc3cc4ccc(F)cc4o3)cc2N(Cc2c(F)cccc2Cl)C1=O` [Example 23, 1-(2-chloro-6-fluorobenzyl)-N-((6-fluorobenzofuran-2-yl)methyl)-3-methyl-2-oxo-1,2,3,4-tetrahydroquinazoline-7-carboxamide] is 1 to 10 µM.
The figure for `CC1c2ccc(C(=O)NCc3ccccc3)cc2N(Cc2ccccc2)C(=O)N1C` (stereo not drawn) [Example 214, N,1-dibenzyl-3,4-dimethyl-2-oxo-1,2,3,4-tetrahydroquinazoline-7-carboxamide] is 1 to 10 µM.
`O=C(NCc1c(F)cc(F)cc1F)c1ccc2c(c1)N(Cc1c(F)cccc1Cl)C(=O)N(O)C2` [Example 69, 1-(2-chloro-6-fluorobenzyl)-3-hydroxy-2-oxo-N-(2,4,6-trifluorobenzyl)-1,2,3,4-tetrahydroquinazoline-7-carboxamide]: the EC50 is > 10 µM.
The figure for `C[C@H]1c2ccc(C(=O)NCc3cc(F)cc(OCCO)c3)cc2N(Cc2c(F)cccc2Cl)C(=O)N1C` [Example 266, (S)-1-(2-chloro-6-fluorobenzyl)-N-(3-fluoro-5-(2-hydroxyethoxy)benzyl)-3,4-dimethyl-2-oxo-1,2,3,4-tetrahydroquinazoline-7-carboxamide] is > 10 µM.
The figure for `CN1Cc2ccc(C(=O)NCc3ccc4c(c3)CC(=O)N4)cc2N(Cc2c(F)cccc2Cl)C1=O` [Example 59, 1-(2-chloro-6-fluorobenzyl)-3-methyl-2-oxo-N-((2-oxoindolin-5-yl)methyl)-1,2,3,4-tetrahydroquinazoline-7-carboxamide] is > 10 µM.
The figure for `Cc1cc(CN2C(=O)N(C)Cc3ccc(C(=O)NCc4c(F)cc(F)cc4F)cc32)nn1C` [Example 57, l-((l,5-dimethyl-1H-pyrazol-3-yl)methyl)-3-methyl-2-oxo-N-(2,4,6-trifluorobenzyl)-1,2,3,4-tetrahydroquinazoline-7-carboxamide] is > 10 µM; for `Cc1cc(CN2C(=O)N(C)C(C)c3ccc(C(=O)NCc4cc5cc(F)ccc5o4)cc32)n(C)n1` (stereo not drawn) [Example 223, 1-((1,3-dimethyl-1H-pyrazol-5-yl)methyl)-N-((5-fluorobenzofuran-2-yl)methyl)-3,4-dimethyl-2-oxo-1,2,3,4-tetrahydroquinazoline-7-carboxamide] it is 1 to 10 µM.
Turning to `CC1c2ccc(C(=O)NCc3c(F)cc(F)cc3F)cc2N(Cc2ccc(F)cc2)C(=O)N1C` (stereo not drawn) [Example 218, 1-(4-fluorobenzyl)-3,4-dimethyl-2-oxo-N-(2,4,6-trifluorobenzyl)-1,2,3,4-tetrahydroquinazoline-7-carboxamide], the EC50 is < 1 µM.
As to `COc1ccc2cc(CNC(=O)c3ccc4c(c3)N(Cc3c(F)cccc3Cl)C(=O)N(C)C4)oc2c1` [Example 22, 1-(2-chloro-6-fluorobenzyl)-N-((6-methoxybenzofuran-2-yl)methyl)-3-methyl-2-oxo-1,2,3,4-tetrahydroquinazoline-7-carboxamide], the EC50 was > 10 µM.
The figure for `CC(C)N1Cc2ccc(C(=O)NCc3c(F)cc(F)cc3F)cc2N(Cc2cc(F)cc(F)c2)C1=O` [Example 15, 1-(3,5-difluorobenzyl)-3-isopropyl-2-oxo-N-(2,4,6-trifluorobenzyl)-1,2,3,4-tetrahydroquinazoline-7-carboxamide] is 1 to 10 µM.
As to `Cc1cc(CN2C(=O)N(C)Cc3ccc(C(=O)NCc4c(F)cc(F)cc4F)cc32)no1` [Example 33, 3-methyl-1-((5-methylisoxazol-3-yl)methyl)-2-oxo-N-(2,4,6-trifluorobenzyl)-1,2,3,4-tetrahydroquinazoline-7-carboxamide], the EC50 fell in the range of 1 to 10 µM.
Next, `CN1Cc2ccc(C(=O)NCc3c(F)cc(F)cc3F)cc2N(Cc2cn3ccccc3n2)C1=O` [Example 65, 1-(imidazo[1,2-a]pyridin-2-ylmethyl)-3-methyl-2-oxo-N-(2,4,6-trifluorobenzyl)-1,2,3,4-tetrahydroquinazoline-7-carboxamide]: > 10 µM; `CN1Cc2ccc(C(=O)NCc3cccc4occc34)cc2N(Cc2c(F)cccc2Cl)C1=O` [Example 50, N-(benzofuran-4-ylmethyl)-1-(2-chloro-6-fluorobenzyl)-3-methyl-2-oxo-1,2,3,4-tetrahydroquinazoline-7-carboxamide]: > 10 µM; `C[C@H]1c2ccc(C(=O)NCc3cccc(OCCO)c3F)cc2N(Cc2c(F)cccc2Cl)C(=O)N1C` [Example 276, (S)-1-(2-chloro-6-fluorobenzyl)-N-(2-fluoro-3-(2-hydroxyethoxy)benzyl)-3,4-dimethyl-2-oxo-1,2,3,4-tetrahydroquinazoline-7-carboxamide]: > 10 µM.
The figure for `CN1Cc2ccc(C(=O)NCc3cc4cc(O)ccc4o3)cc2N(Cc2c(F)cccc2Cl)C1=O` [Example 27, 1-(2-chloro-6-fluorobenzyl)-N-((5-hydroxybenzof uran-2-yl)methyl)-3-methyl-2-oxo-1.2,3,4-tetrahydroquin azoline-7-carboxamide] is 1 to 10 µM; for `C[C@H]1c2ccc(C(=O)NCc3cccc(O)c3F)cc2N(Cc2c(F)cccc2Cl)C(=O)N1C` [Example 267, (S)-1-(2-chloro-6-fluorobenzyl)-N-(2-fluoro-3-hydroxybenzyl)-3,4-dimethyl-2-oxo-1,2,3,4-tetrahydroquinazoline-7-carboxamide] it is < 1 µM; for `CC1c2ccc(C(=O)NCc3c(F)cc(F)cc3F)cc2N(Cc2ccccc2F)C(=O)N1C` (stereo not drawn) [Example 194, 1-(2-fluorobenzyl)-3,4-dimethyl-2-oxo-N-(2,4,6-trifluorobenzyl)-1,2,3,4-tetrahydroquinazoline-7-carboxamide] it is < 1 µM.
Next, `CN1Cc2ccc(C(=O)NCc3cccc4c3OCO4)cc2N(Cc2c(F)cccc2Cl)C1=O` [Example 43, N-(benzo[d][1,3]dioxol-4-ylmethyl)-1-(2-chloro-6-fluorobenzyl)-3-methyl-2-oxo-1,2,3,4-tetrahydroquinazoline-7-carboxamide]: > 10 µM; `COc1cc(F)cc(CNC(=O)c2ccc3c(c2)N(Cc2c(F)cccc2Cl)C(=O)N(C)[C@H]3C)c1` [Example 248, (S)-1-(2-chloro-6-fluorobenzyl)-N-(3-fluoro-5-methoxybenzyl)-3,4-dimethyl-2-oxo-1,2,3,4-tetrahydroquinazoline-7-carboxamide]: 1 to 10 µM.
As for `C[C@H]1c2ccc(C(=O)NCc3cc(O)cc(F)c3)cc2N(Cc2c(F)cccc2Cl)C(=O)N1C` [Example 250, (S)-1-(2-chloro-6-fluorobenzyl)-N-(3-fluoro-5-hydroxybenzyl)-3,4-dimethyl-2-oxo-1,2,3,4-tetrahydroquinazoline-7-carboxamide], the 50% effective concentration (EC50) was < 1 µM.
Next, `C[C@H]1c2ccc(C(=O)NCc3c(F)cc(F)cc3F)cc2N(Cc2c(F)cc(OCCCN)cc2F)C(=O)N1C` [Example 280, (S)-1-(4-(3-aminopropoxy)-2,6-difluorobenzyl)-3,4-dimethyl-2-oxo-N-(2,4,6-trifluorobenzyl)-1,2,3,4-tetrahydroquinazoline-7-carboxamide]: < 1 µM; `Cc1cccc(F)c1CN1C(=O)N(C)Cc2ccc(C(=O)NCc3c(F)cc(F)cc3F)cc21` [Example 9, 1-(2-fluoro-6-methylbenzyl)-3-methyl-2-oxo-N-(2,4,6-trifluorobenzyl)-1,2,3,4-tetrahydroquinazoline-7-carboxamide]: < 1 µM.
Next, `C[C@H]1c2ccc(C(=O)NCc3c(F)cc(F)cc3F)cc2N(Cc2c(F)cc(OCC(=O)O)cc2F)C(=O)N1C` [Example 277, (S)-2-(4-((3,4-dimethyl-2-oxo-7-((2,4,6-trifluorobenzyl)carbamoyl)-3,4-dihydroquinazolin-1(2H)-yl)methyl)-3,5-difluorophenoxy)acetic acid]: > 10 µM.

The values are drawn from patent US11571423B2, “Small molecule modulators of human sting” (Curadev Pharma Limited, priority 2017, dated 2023).
